Assay results reported in PubChem BioAssay AID540268 (Broad Institute, 2011).
Active and inactive are the calls of the source. How the calls were made is not given here.

Assay: reduced viability of parasite-Hsp90 expressing yeast – ATP luminescence, 48 h, cherry-picked samples, anti-malarial Hsp90 inhibitor project, dose response (AID 540268);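 on activity change, negative = inhibition: 0% = neutral control wells and -100% = positive control wells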
Conditions: yeast expressing the parasite Hsp90, ATP luminescence; for activity change, negative = inhibition: at 26 µM (top of the series)

Cc1ccc(C)c(/C=C/C(=O)c2ccccc(=O)c2O)c1
AC50: 2.19 µM

CCN(CCO)C1CC(=O)N(c2ccccc2C)C1=O (configuration not stated)
AC50: 1.26 µM

CCS(=O)(=O)Nc1cccc(-c2cc(-c3ccccc3)c3cc(C)ccc3n2)c1
AC50: 4.55 µM

Cn1c(O)c(C(=Nc2ccc(F)cc2)c2ccccc2Cl)c(=O)n(C)c1=O
AC50: 2.28 µM

Cc1cc(N2CCN(C(=O)c3ccco3)CC2)n2nc(C)c(-c3ccccc3)c2n1
AC50: 8.36 µM

N/C(Cc1ccc(Cl)cc1Cl)=N\OC(=O)c1cccs1
AC50: 6.39 µM

Cc1[nH]c2ccc(C(=O)N3CCN(c4cccc(Cl)c4)CC3)cc2c1C
AC50: 8.89 µM

O=C1S/C(=C\c2ccc(N3CCOCC3)o2)C(=O)N1Cc1c(F)cccc1Cl
AC50: 11.1 µM

COc1cc2c(cc1/C=C/[N+](=O)[O-])OCO2
AC50: 3.11 µM

Cc1ccc2nc(-c3ccc(NS(=O)(=O)c4ccc(F)cc4)cc3)sc2c1
activity change, negative = inhibition: 144% (inactive)

CCN1C/C(=C/c2cccc([N+](=O)[O-])c2)C(=O)/C(=C/c2cccc([N+](=O)[O-])c2)C1
AC50: 3.22 µM

CC(C)N1CCN(c2ccc(OC[C@H]3CO[C@](Cn4cncn4)(c4ccc(Cl)cc4Cl)O3)cc2)CC1
AC50: 1.5 µM

Cc1ccc(N=N/C(=C\O)C(=O)c2ccc(Cl)cc2)cc1
AC50: 8.29 µM

CCC1C/C(=C\c2cccnc2)C(=O)/C(=C/c2cccnc2)C1 (configuration not stated)
AC50: 9.06 µM

C=CCn1c(C)cc(C(=O)CSc2nc3ccccc3c(=O)[nH]2)c1C
AC50: 3.28 µM

Cc1cc(N2CCN(C(=O)c3ccco3)CC2)n2ncc(-c3ccccc3)c2n1
AC50: 2.31 µM

Cc1c(Cl)cccc1N=Cc1ccc([N+](=O)[O-])s1
AC50: 8.3 µM

CC(=O)N(C1=C(Cl)C(=O)c2ccccc2C1=O)C1CCCCC1
AC50: < 0.195 µM

O=C(Nc1ccccc1Cl)/C(Cl)=C(\Cl)S(=O)c1ccccc1 (configuration not stated)
AC50: 0.718 µM

O=C(CCN1C(=O)/C(=C/c2cccs2)SC1=S)NC1=NCCS1
activity change, negative = inhibition: 60.4% (inactive)

CCOc1ccc(NCc2cc3c(C(C)(C)C)nn(-c4ccccc4)c3[nH]c2=O)cc1
AC50: 18.1 µM

N#C/C(=C\c1cccc(Oc2ccccc2)c1)C(=O)N1CCOCC1
AC50: 8.86 µM

Cc1nn2c(NCc3ccccn3)cc(C(C)(C)C)nc2c1-c1ccccc1
AC50: 3.02 µM

COc1ccc(NC(=O)/C(Cl)=C(/Cl)S(=O)Cc2ccccc2)cn1 (configuration not stated)
AC50: 2.54 µM

CCOC(=O)/C=C/C(=O)Nc1cccc([N+](=O)[O-])c1
AC50: 3.5 µM

Cc1cccc(N2C(=O)/C(=C\c3ccc(OC(F)F)cc3)c3ccccc3C2=O)c1
AC50: 4.64 µM

Cc1ccc(-c2onc3ccc(C(=O)/C=C/N(C)C)cc23)cc1
AC50: 5.98 µM

COc1ccc(-c2nn(-c3ccccc3)cc2C(=O)N2CCN(S(=O)(=O)c3ccccc3[N+](=O)[O-])CC2)cc1
AC50: 4.14 µM

Cc1cc(/C=C2\SC(=S)NC2=O)c(C)n1-c1ccc(O)cc1
AC50: 4.65 µM

O=C(OC12CC3CC(CC(C3)C1)C2)c1ccc(NCc2cc(O)ccc2O)cc1
AC50: 8.91 µM

CCn1c(CNc2ccc(Cl)cc2)nnc1SCc1ccc(Cl)cc1
AC50: 4.37 µM

O=C(Nc1ccccc1)Oc1cccc2cccnc12
AC50: 2.12 µM

O=C(c1ccc(-c2ccccc2)c(F)c1)C1CCCN(C(=O)c2cncs2)C1 (configuration not stated)
AC50: 8.42 µM

COc1ccccc1NS(=O)(=O)c1cc(C(=O)N2CC(C)CC(C)C2)ccc1C (configuration not stated)
AC50: 5.81 µM

O=C(Nc1ccc(Cl)cc1Cl)c1cccc(N2C(=O)C=CC2=O)c1
AC50: < 0.195 µM

COc1ccccc1N=Nc1ccc(O)c2ncccc12
AC50: 4.31 µM

COc1ccc(C(=O)N/N=C/c2sc3ccccc3c2O)cc1
AC50: 2.35 µM

O=C(NCCCCc1ccccc1)c1ccc(Br)cc1
AC50: 4.42 µM

CC(NNC(=S)N1CCN(c2ccccn2)CC1)c1nccc2ccccc12 (configuration not stated)
AC50: 2.74 µM

O=[N+]([O-])/C=C/c1c(Cl)cccc1Cl
AC50: 0.457 µM

CCCCCCCCCCCCCCCCn1cc[n+](CC(C)=O)c1
AC50: 4.39 µM

CC(C)(C)C(O)C(Cc1ccccc1Cl)n1cncn1 (configuration not stated)
AC50: < 0.195 µM

COC(=O)c1ccc(NC(=O)c2nc(S(=O)(=O)Cc3cccc(C)c3)ncc2Cl)cc1
AC50: 3.99 µM

COc1ccc2c(c1)OC[C@H]1[C@H]2N2C(=O)c3cc(OC)ccc3NC(=O)[C@@]2(C)[C@H]1c1ccccc1
AC50: 24.7 µM

CCCCC(=O)NC(c1ccc(C(C)C)cc1)c1ccc2cccnc2c1O (configuration not stated)
AC50: 6.98 µM

COc1cc2cnc(-c3ccccc3)c(C(=O)c3ccc(F)cc3)c2cc1OC
AC50: 3.01 µM

Cc1ccc(/C=[N+](\[O-])c2ccc(N(C)C)cc2)c2nsnc12
AC50: 8.1 µM

Cc1cc(/C=c2\sc3nc4ccccc4n3c2=O)c(C)n1-c1ccc(C(=O)O)cc1
activity change, negative = inhibition: 22.6% (inactive)

CCOc1cc(/C=C\[N+](=O)[O-])ccc1OCC(=O)Nc1ccccc1C
AC50: 2.61 µM

CCCCCCCCCC[N+](C)(C)CC/C=C1/c2ccccc2Sc2ccc(Cl)cc21
AC50: 6.32 µM

Cc1ccc(NC(=O)c2cc(N3C(=O)C=CC3=O)ccc2N2CCOCC2)cc1
AC50: 0.605 µM

C[C@@H]1C[C@@H]2O[C@H]2/C=C\C=C\C(=O)Cc2c(Cl)c(O)cc(O)c2C(=O)O1
AC50: 2.51 µM

CCOC(=O)N=Nc1c2ccccc2c2nc3no[nH]c3nc12
AC50: 0.769 µM

CCCC(=O)NC1=C(Cl)C(=O)c2ccccc2C1=O
AC50: < 0.195 µM

CCCCCCCCNC(=O)/C(C#N)=C/c1ccccc1[N+](=O)[O-]
AC50: 4.69 µM

Cn1cncc1C#Cc1c(-c2ccsc2)sc2ccccc12
AC50: 7.55 µM

CC(Oc1ccc(Cl)cc1)C(=O)NNC(=S)NC(=O)c1ccco1 (configuration not stated)
AC50: 1.94 µM

Cc1nnc(C)n1/N=C/c1cc(Br)cc(Br)c1O
AC50: 4.35 µM

O=[N+]([O-])c1cc(S(=O)(=O)C(F)(F)F)ccc1Sc1nc2ccccc2s1
AC50: 3.43 µM

O=[S@]1Oc2ccccc2-c2ccccc21
AC50: 1.67 µM

CCN(CC)S(=O)(=O)c1cccc(NC(=O)c2ccc(Br)cc2)c1
AC50: 5.81 µM

CCCNC(=O)c1nnsc1S(=O)c1ccc(Cl)cc1 (configuration not stated)
AC50: 1.53 µM

CN(C)CC1Oc2ccccc2OC1(O)c1ccccc1 (configuration not stated)
AC50: 2.98 µM

Cc1ccc(OCc2n[nH]c(=S)n2C2CCCCC2)cc1
AC50: 23.6 µM

CN(C)/C=C/C(=O)/C=C/c1cn(-c2ncc(C(F)(F)F)cc2Cl)c2ccccc12
AC50: 4.18 µM

O=C(NC(c1ccc(Cl)cc1)c1cc(Cl)c2cccnc2c1O)c1cccnc1 (configuration not stated)
AC50: 24.4 µM

Cc1cccc2cc(CN(Cc3nnnn3C3CCCCC3)C3CCCC3)c3nnnn3c12
AC50: 2.2 µM

Cc1ccc(-n2ncc3c2CCCC3NC(=O)c2ccccc2N2CCOCC2)cc1C (configuration not stated)
AC50: 0.984 µM

Cc1ccc(/C=C/C(=O)c2ccccc(=O)c2O)cc1C
AC50: 8.01 µM

CN(C)C(=S)SSC(=S)N(C)C
AC50: 3.96 µM

COc1ccc(/C=C/C(=O)c2cc(Br)ccc(=O)c2O)cc1
AC50: 3.21 µM

COc1ccc(S(=O)(=O)NC2CC3CCC2C3)cc1Br (configuration not stated)
AC50: 3.52 µM

Cc1cccc(COC(=O)CCCNC(=O)c2ccc(Cl)cc2)c1
AC50: 8.69 µM

CC1=C/C(=N\OS(=O)(=O)c2ccccc2)C(C(C)C)=CC1=O
AC50: 0.827 µM

Cc1ccc(-n2c(Cl)c(Cl)nc(Cl)c2=O)cc1
AC50: 1.2 µM

CC(C)(C)C(=O)NCC12C=CC(O1)C1C(=O)N(c3ccccc3)C(=O)C12 (configuration not stated)
AC50: 5.05 µM

N#C/C(=C\c1cccc([N+](=O)[O-])c1)C(=O)NCc1ccc(Cl)cc1
AC50: 6.75 µM

Cc1cc(C)cc(N=Cc2ccc([N+](=O)[O-])s2)c1
AC50: 3.94 µM

O=C(Nc1nnc(SCc2ccc(F)cc2)s1)c1ccccn1
AC50: 4.41 µM

CCCCC(=O)NC(c1ccccc1)c1ccc2cccnc2c1O (configuration not stated)
AC50: 23.6 µM

O=C1CC(c2ccccc2)=NN1c1nc(-c2ccccc2)cs1
AC50: 1.14 µM

CCOC(=O)c1ccc(N2C(=O)CC(N3CCC(C(=O)OCC)CC3)C2=O)cc1 (configuration not stated)
AC50: < 0.195 µM

Cc1ccc(-n2nnnc2C(Cl)c2nnnn2-c2ccc(C)cc2)cc1
AC50: 0.903 µM

O=c1cc(CSc2ccc(Cl)cc2)nc(-c2ccccn2)[nH]1
AC50: 16.6 µM

Cc1nn(-c2nc3ccccc3[nH]2)c(=O)c2ccccc12
AC50: 1.84 µM

CCCC(=O)NC(c1ccccc1Cl)c1ccc2cccnc2c1O (configuration not stated)
AC50: 4.13 µM

CN(C)c1ccc(-n2cccc2/C=C/[N+](=O)[O-])cc1
AC50: 4.83 µM

CCCC(=O)NC(c1cccs1)c1cc(Cl)c2cccnc2c1O (configuration not stated)
AC50: 1.58 µM

COc1cccc(/C=N/Nc2ccc([N+](=O)[O-])cn2)c1O
AC50: 4.36 µM

O=C(Nc1nnc(-c2ccc(F)cc2)o1)c1cc(Cl)sc1Cl
AC50: 2.43 µM

Cc1ccc(N/N=C(\C#N)C(N)=S)c(C)c1
AC50: 1.32 µM

COc1ccc(-c2nn(-c3ccccc3)cc2C(=O)N2CCN(S(=O)(=O)c3cccc(F)c3)CC2)cc1
AC50: 1.15 µM

O=C(C#Cc1ccccc1)c1ccc([N+](=O)[O-])cc1
AC50: 2.1 µM

COc1ccc(N=Nc2ccc(O)c3ncccc23)cc1
AC50: 4.61 µM

CC(C)(C)SCCNC(=O)c1ccc(Cl)c([N+](=O)[O-])c1
AC50: 4.37 µM

O=C(C=P(c1ccccc1)(c1ccccc1)c1ccccc1)c1ccccc1-c1ccccc1C(=O)C=P(c1ccccc1)(c1ccccc1)c1ccccc1
AC50: 5.12 µM

Oc1cccc2ccc(/C=C/c3ccccc3Cl)nc12
AC50: 16.3 µM

O=C1C=CC(=O)N1c1ccc(OC(F)F)cc1
AC50: 0.421 µM

Cc1ccc(S(=O)(=O)Nc2cc(Cl)c(O)c3ncccc23)cc1
AC50: 2.09 µM

CCCCCCC(=O)N(O)C1CC(=O)N(c2ccc(F)cc2)C1=O (configuration not stated)
AC50: 1.32 µM

CCN(CC)C1CC(=O)N(c2ccc(Br)cc2)C1=O (configuration not stated)
AC50: 2.97 µM

O=S(=O)(c1c(F)cccc1F)N(CCc1ccc(F)cc1)C[C@@H](O)COCc1ccccc1
AC50: 1.2 µM

Oc1c(Br)cc(Br)c(/C=N/n2c(-c3ccccc3)n[nH]c2=S)c1Br
AC50: 10.4 µM

Cc1ccc(O)c(-c2cc(-c3cccc(Br)c3)n[nH]2)c1
AC50: 4.38 µM

O=C(/C=C/c1cccc([N+](=O)[O-])c1)c1cccs1
AC50: 2.63 µM

Cc1cc(NC(c2ccc(Cl)cc2)c2ccc3cccnc3c2O)no1 (configuration not stated)
AC50: 4.2 µM

COc1ccc(C(=O)/C=C2\C(=O)Nc3ccc(Br)cc32)cc1
AC50: 2.22 µM

C[C@@]12C(=O)Nc3ccc(Cl)cc3C(=O)N1[C@H]1c3ccccc3OC[C@@H]1[C@@H]2c1ccccc1
AC50: 0.487 µM

O=[N+]([O-])/C=C/c1cn(Cc2ccccc2)c2ccccc12
AC50: 5.99 µM

Cc1ccc(-n2nnnc2C(Cl)(Cl)c2nnnn2-c2ccc(C)cc2)cc1
AC50: 1.12 µM

C/C(=N\Nc1ncc(Cl)cc1Cl)c1ccccn1
AC50: 1.8 µM

CCOc1ccc(S(=O)(=O)NCc2ccccn2)c(C)c1C
activity change, negative = inhibition: 14.4% (inactive)
